How the values were obtained:
S. aureus (129B strain) = assay: Early biofilm formation, crystal violet staining; assay type: cell-based, Staphylococcus aureus; parameters: key: ↓: Decrease in the parameter (optical density) compared to the negative control; −: No decrease in the parameter; ↑: Reverse effect (increase in the optical density compared to the control); conditions: peptide present from inoculation, 24 h, OD 595 nm
Method: (§1) After 24 h of incubation, the medium was removed. To assess the total biofilm biomass, the wells were rinsed with sterile PBS solution and stained with 0.1% crystal violet. The dye bound to the surface was then removed using 95% ethanol. To assess the presence of metabolically active cells, 0.3% MTT (PanEco Ltd., Moscow, Russia) solution was added to each well, and the plates were incubated at 37 °C for 2 h. After incubation, the MTT solution was removed, 150 µL of DMSO (Chimmed, Moscow, Russia) and 25 µL of glycine buffer were added to each well, and the plates were left at room temperature for 15 min. The resulting solutions were transferred to a flat-bottom 96-well plate, and optical density was measured at 595 nm.

[1] = tested on: P. aeruginosa (2943 strain); assay: Early biofilm formation, crystal violet staining; assay type: cell-based, Pseudomonas aeruginosa; conditions: 24 h; for change of optical density after crystal violet staining vs negative control: peptide present from inoculation, OD 595 nm
Method: as §1

MRSA (SA 180-F strain) [2] = assay: Early biofilm formation, MTT assay; assay type: cell-based, methicillin-resistant Staphylococcus aureus; parameters: key: ↓: Decrease in the parameter (optical density) compared to the negative control; −: No decrease in the parameter; ↑: Reverse effect (increase in the optical density compared to the control); conditions: 24 h, 0.3% MTT 2 h 37 °C, OD 595 nm
Method: as §1

[3] = tested on: P. aeruginosa (2943 strain); assay: Mature biofilms, crystal violet staining; assay type: cell-based, Pseudomonas aeruginosa; parameters: key: ↓: Decrease in the parameter (optical density) compared to the negative control; −: No decrease in the parameter; ↑: Reverse effect (increase in the optical density compared to the control); conditions: mature biofilm: peptide added after 24 h, further 24 h; 0.01-10 mg/mL
Method: as §1
(§2) A stationary-phase culture of the tested strain was diluted 100-fold in fresh medium (200 µL per well) and added to the wells of a 96-well round-bottom plate. […] After another 24 h, the medium was removed and the wells were rinsed with sterile PBS to eliminate planktonic cells. The procedures for assessing total biofilm biomass and cell metabolic activity using crystal violet and MTT assays were performed in the same manner as described above for early-stage biofilm experiments.

[4] = tested on: P. aeruginosa (2943 strain); assay: Mature biofilms, MTT assay; assay type: cell-based, Pseudomonas aeruginosa; parameters: key: ↓: Decrease in the parameter (optical density) compared to the negative control; −: No decrease in the parameter; ↑: Reverse effect (increase in the optical density compared to the control); conditions: mature biofilm: peptide added after 24 h, further 24 h; 0.01-10 mg/mL
Method: as §1, §2

MRSA (SA 180-F strain) [5] = assay: Early biofilm formation, crystal violet staining; assay type: cell-based, methicillin-resistant Staphylococcus aureus; parameters: key: ↓: Decrease in the parameter (optical density) compared to the negative control; −: No decrease in the optical density; ↑: Reverse effect (increase in the optical density compared to the control); conditions: peptide present from inoculation, 24 h, OD 595 nm
Method: as §1

MRSA (SA 180-F strain) [6] = assay: Early biofilm formation, crystal violet staining; assay type: cell-based, methicillin-resistant Staphylococcus aureus; conditions: for concentration given with ↓ (crystal violet): 24 h; for biofilm biomass following treatment (crystal violet): Table 3; for effectiveness compared to meropenem: tested concentrations 0.01, 0.1, 1, 10 mg/mL, crystal violet
Method: as §1

E. coli (MG1655 strain) [7] = assay: Mature biofilms, MTT assay; assay type: cell-based, Escherichia coli; conditions: mature biofilm
Method: as §1, §2

E. coli (MG1655 strain) [8] = assay: Antibacterial activity in liquid medium (optical density); assay type: cell-based, Escherichia coli; conditions: 10 mg/mL
E. coli (MG1655 strain) [9] = assay: Mature biofilms, crystal violet staining; assay type: cell-based, Escherichia coli; parameters: key: ↓: Decrease in the parameter (optical density) compared to the negative control; −: No decrease in the parameter; ↑: Reverse effect (increase in the optical density compared to the control); conditions: mature biofilm: peptide added after 24 h, further 24 h; 0.01-10 mg/mL
Method: as §1, §2

E. coli (MG1655 strain) [10] = assay: Mature biofilms, MTT assay; assay type: cell-based, Escherichia coli; parameters: key: ↓: Decrease in the parameter (optical density) compared to the negative control; −: No decrease in the parameter; ↑: Reverse effect (increase in the optical density compared to the control); conditions: mature biofilm: peptide added after 24 h, further 24 h, 0.01-10 mg/mL
Method: as §1, §2

[11] = tested on: P. aeruginosa (2943 strain); assay: Mature biofilms, crystal violet staining; assay type: cell-based, Pseudomonas aeruginosa; parameters: key: ↓: Decrease in the parameter (optical density) compared to the negative control; −: No decrease in the optical density; ↑: Reverse effect (increase in the optical density compared to the control); conditions: mature biofilm: peptide added after 24 h, further 24 h, 0.01-10 mg/mL
Method: as §1, §2

[12] = tested on: P. aeruginosa (2943 strain); assay: Mature biofilms, MTT assay; assay type: cell-based, Pseudomonas aeruginosa; parameters: key: ↓: Decrease in the parameter (optical density) compared to the negative control; −: No decrease in the optical density; ↑: Reverse effect (increase in the optical density compared to the control); conditions: mature biofilm: peptide added after 24 h, further 24 h, 0.01-10 mg/mL
Method: as §1, §2

[13] = tested on: P. aeruginosa (2943 strain); assay: Early biofilm formation, MTT assay; assay type: cell-based, Pseudomonas aeruginosa; conditions: for bacterial metabolic activity (MTT): 10 mg/mL; for concentration given with ↓ (MTT): 24 h
Method: as §1

E. coli (MG1655 strain) [14] = assay: Early biofilm formation, MTT assay; assay type: cell-based, Escherichia coli; parameters: key: ↓: Decrease in the parameter (optical density) compared to the negative control; −: No decrease in the optical density; ↑: Reverse effect (increase in the optical density compared to the control); conditions: 24 h, 0.3% MTT 2 h 37 °C, OD 595 nm
Method: as §1

Sequence: ITDFGIFIGLGGGGSRQIKIWFQNRRMKWKK [I31K^P]
- change of optical density after crystal violet staining vs negative control (S. aureus (129B strain)): ↑
- change of optical density after crystal violet staining vs negative control [1]: −
- change of optical density after MTT assay vs negative control (MRSA (SA 180-F strain) [2]): ↑
- change of optical density after crystal violet staining vs negative control [3]: ↑
- change of optical density after MTT assay vs negative control [4]: ↑
- change of optical density after crystal violet staining vs negative control (MRSA (SA 180-F strain) [5]): −

Sequence: RKKRRQRRRGGGGITDFGIFIGL [R23L^P]
- effect on MRSA biofilm formation (crystal violet staining intensity) (MRSA (SA 180-F strain) [6]; 0.01 mg/mL, Figure 1): inhibitory effect
- concentration given with ↓ (crystal violet) (MRSA (SA 180-F strain) [6]): 10 mg/mL
- biofilm biomass following treatment (crystal violet) (MRSA (SA 180-F strain) [6]): marked reduction in biofilm biomass
- effectiveness compared to meropenem (MRSA (SA 180-F strain) [6]; Figure 1): less effective compared to meropenem
- change of optical density after crystal violet staining vs negative control (S. aureus (129B strain)): ↑
- concentration given with ↓ (crystal violet) [1]: 10 mg/mL
- change of optical density after crystal violet staining vs negative control [1]: ↓ (10 mg/mL)
- change of optical density after MTT assay vs negative control (MRSA (SA 180-F strain) [2]): ↑
- residual viability of cells (MTT) (E. coli (MG1655 strain) [7]): did not inhibit
- antimicrobial activity relative to meropenem (E. coli (MG1655 strain) [8]): comparable to that of meropenem
- change of optical density after crystal violet staining vs negative control (E. coli (MG1655 strain) [9]): ↑
- change of optical density after crystal violet staining vs negative control [3]: ↑
- change of optical density after MTT assay vs negative control [4]: ↑

Sequence: RKKRRQRRRGGGGVTDFGVFVEI [R23I^T, TAT cell-penetrating peptide linked via glycine linker to amyloidogenic fragment of S1 ribosomal protein of T. thermophilus]
- change of optical density after crystal violet staining vs negative control (S. aureus (129B strain)): ↑
- change of optical density after crystal violet staining vs negative control [1]: −
- change of optical density after MTT assay vs negative control (MRSA (SA 180-F strain) [2]): ↑
- residual viability of cells (MTT) (E. coli (MG1655 strain) [7]): did not inhibit
- change of optical density after MTT assay vs negative control (E. coli (MG1655 strain) [10]): ↑
- change of optical density after crystal violet staining vs negative control (MRSA (SA 180-F strain) [5]): −
- change of optical density after crystal violet staining vs negative control [11]: −
- change of optical density after MTT assay vs negative control [12]: −

Sequence: RKKRRQRRRGGGGVVVHINGGKFGGGGSRQIKIWFQNRRMKWKK [R44K^S]
- effect on MRSA biofilm formation (crystal violet staining intensity) (MRSA (SA 180-F strain) [6]; 1 and 10 mg/mL, Figure 1, two independent replicates): inhibitory effect
- concentration given with ↓ (crystal violet) (MRSA (SA 180-F strain) [6]): 1 mg/mL
- concentration given with ↓ (crystal violet) (MRSA (SA 180-F strain) [6]; listed as R44K^P): 10 mg/mL
- biofilm biomass following treatment (crystal violet) (MRSA (SA 180-F strain) [6]): marked reduction in biofilm biomass
- effectiveness compared to meropenem (MRSA (SA 180-F strain) [6]; Figure 1): less effective compared to meropenem
- change of optical density after crystal violet staining vs negative control (S. aureus (129B strain)): ↑
- concentration given with ↓ (crystal violet) [1]: 10 mg/mL
- change of optical density after crystal violet staining vs negative control [1]: ↓ (10 mg/mL)
- change of optical density after MTT assay vs negative control (MRSA (SA 180-F strain) [2]): ↑
- bacterial metabolic activity (MTT) [13]: reduced bacterial metabolic activity
- concentration given with ↓ (MTT) [13]: 10 mg/mL
- residual viability of cells (MTT) (E. coli (MG1655 strain) [7]): did not inhibit
- antimicrobial activity relative to meropenem (E. coli (MG1655 strain) [8]): comparable to that of meropenem
- change of optical density after crystal violet staining vs negative control (E. coli (MG1655 strain) [9]): ↑
- change of optical density after crystal violet staining vs negative control [3]: ↑
- change of optical density after MTT assay vs negative control (E. coli (MG1655 strain) [10]): ↑
- change of optical density after MTT assay vs negative control [4]: ↑
- change of optical density after MTT assay vs negative control (E. coli (MG1655 strain) [14]): −
- change of optical density after crystal violet staining vs negative control ([11]; listed as R44K^P): −
- change of optical density after MTT assay vs negative control ([12]; listed as R44K^P): −

Sequence: VTDFGVFVEIGGGGSRQIKIWFQNRRMKWKK [V31K^T, amyloidogenic fragment of S1 of T. thermophilus linked via glycine-rich linker to antennapedia peptide]
- effect on MRSA biofilm formation (crystal violet staining intensity) (MRSA (SA 180-F strain) [6]; 0.01 mg/mL, Figure 1): inhibitory effect
- effect on MRSA biofilm formation (crystal violet staining intensity) (MRSA (SA 180-F strain) [6]; 10 mg/mL, Figure 1): reversed
- concentration given with ↓ (crystal violet) (MRSA (SA 180-F strain) [6]): 10 mg/mL
- biofilm biomass following treatment (crystal violet) (MRSA (SA 180-F strain) [6]): marked reduction in biofilm biomass
- effectiveness compared to meropenem (MRSA (SA 180-F strain) [6]; Figure 1): less effective compared to meropenem
- change of optical density after crystal violet staining vs negative control (S. aureus (129B strain)): ↑
- concentration given with ↓ (crystal violet) [1]: 10 mg/mL
- change of optical density after crystal violet staining vs negative control [1]: −
- change of optical density after crystal violet staining vs negative control ([1]; listed as V31K^S): ↓ (10 mg/mL)
- change of optical density after MTT assay vs negative control (MRSA (SA 180-F strain) [2]): ↑
- bacterial metabolic activity (MTT) [13]: reduced bacterial metabolic activity
- concentration given with ↓ (MTT) [13]: 10 mg/mL
- residual viability of cells (MTT) (E. coli (MG1655 strain) [7]): did not inhibit
- change of optical density after crystal violet staining vs negative control (E. coli (MG1655 strain) [9]): ↑
- change of optical density after crystal violet staining vs negative control [3]: ↑
- change of optical density after MTT assay vs negative control (E. coli (MG1655 strain) [10]; listed as V31K^S): ↑
- change of optical density after MTT assay vs negative control [4]: ↑
- change of optical density after MTT assay vs negative control (E. coli (MG1655 strain) [14]): −
- change of optical density after MTT assay vs negative control ([12]; listed as V31K^S): −

From article PMC12470154, “In Vitro Evaluation of Antimicrobial Amyloidogenic Peptides for the Treatment of Early and Mature Bacterial Biofilms” (International Journal of Molecular Sciences, 2025)
